In EP2698385A1, “Detection of synthetic cannabinoids” (priority 2012, dated 2014):

System: antibodies raised to Immunogens I & II
Experiment: Competitive ELISA (Example 19), sensitivity and cross-reactivity of selected molecules, one result for both antibodies
Assay type: binding, sheep
Settings: result in words
Description: Aqueous solutions of the immunogens prepared in examples 5 and 13 were formulated with Freund's Complete Adjuvant (FCA) to form emulsions consisting of 2mg/ml Immunogen I and 2mg/ml of Immunogen II in 50%(v/v) FCA. Three sheep were immunised with each emulsion (1° immunisations), 0.25ml being intramuscularly injected at four sites in the rump of each animal. Subsequent immunisations (boosts 2-8) contained 1mg/ml Immunogen I and 1mg/ml Immunogen II. All boosts were emulsified in 50%(v/v) Freund's Incomplete Adjuvant (FIA) and administered to the appropriate sheep in the same manner as the 1° immunisations, at monthly intervals. Blood sampling took place 7-14 days after each boost. Each sample was processed to produce antiserum, which was further purified by caprylic acid and ammonium sulphate precipitation to yield an immunoglobulin (Ig) fraction. The Ig fraction was evaluated by competitive ELISA microtiter plate assay, as described in example 19 below.
Example 19: Development of competitive ELISA for JWH synthetic cannabinoids and metabolites. • (a) The wells of an enhanced binding 96 well polystyrene microtiter plate were coated with the Ig fraction of the antiserum raised to Immunogen I (Hapten A-BTG - example 5) and diluted in 10mM Tris, pH8.5 (125µl/well). The appropriate antibody coating concentration was determined using standard ELISA checkerboard techniques. The plate was incubated for 2 hours at 37°C, washed 4 times over a 10-minute period with Tris buffered saline containing Tween 20 (TBST) and tapped dry. Standard solutions of JWH synthetic cannabinoids, metabolites and selected molecules were prepared in TBST and 50µl of each was added to the appropriate wells. 75µl of conjugate (Hapten A-HRP) diluted in Tris buffer containing EDTA, D-mannitol, sucrose, thimerosal and BSA, was added to each of the wells. The appropriate dilution of conjugate was also determined using standard ELISA checkerboard techniques. The plate was incubated at 25°C for 1 hour. The excess unbound conjugate was removed by washing 6 times over a 10-minute period with TBST and tapped dry. 125µl of tetramethylbenzedine (TMB) substrate solution was added to each well of the plate that was then incubated for 15-20 minutes in the dark at room temperature. The reaction was terminated by addition of 125µl of 0.2M sulphuric acid to each well. The absorbance was then measured at 450nm using a microtiter plate reader. Employing each series of standards, calibration curves were generated and these were used to determine the specificity of the immunoassay for the JWH synthetic cannabinoids, metabolites and selected molecules. The results of this study are presented in Tables 1 to 3, cross-reactivity being calculated according to the following formula: %CR = […] /IC50,CR X 100 [formula] Where %CR is the percentage cross-reactivity, IC50, YWH-018 is the concentration of JWH-018 that causes 50% displacement of signal and IC50, CR is the concentration of JWH synthetic cannabinoid/metabolite/selected molecule that causes 50% displacement of signal.
Table 2: Data generated from a competitive microtiter plate assay for JWH synthetic cannabinoids and metabolites, employing antiserum raised to Immunogen I (Hapten A-BTG) and conjugate (Hapten A-HRP) as detection reagent. • (c) The resulting competitive ELISA for synthetic cannabinoids and metabolites was further employed to analyse urine and serum samples from 20 patients (Table 3). • (d) The resulting competitive ELISA for synthetic cannabinoids and metabolites was also employed to test for the 5-fluoropentyl derivative of JWH-018, (1-(5-fluoropentyl)indol-3yl (1-naphthyl) methanone (Table 4).

SMILES: O=C(O)CCCCn1cc(C(=O)c2cccc3ccccc23)c2ccccc21 [JWH-018 N-pentanoic acid metabolite]
- binding / cross-reaction with antibodies raised from Immunogens I and II: bind

SMILES: CCCCCn1cc(C(=O)c2ccc(Cl)c3ccccc23)c2ccccc21 [JWH-398]
- binding / cross-reaction with antibodies raised from Immunogens I and II: bind
